Results taken from patent US6372746B1, “Derivatives of acyl-piperazinyl-pyrimidines, preparation thereof and application as medicaments” (Laboratorios Del Dr. Esteve, S.A., priority 1997, dated 2002).
Structures can show the parent of a compound that is named as a salt.

Legend:
mice [1] = test: Sleep-inducing activity: capacity to increase the sleep time induced by barbital; format: in vivo; details: for % Activity (sleep) Dosage 100 mg/kg: product 100 mg/Kg i.p., 15 min after barbital 150 mg/Kg i.v.; for DE50: product i.p. 15 min after barbital 150 mg/Kg i.v., dosage efficacy 50
Experimental: Sleep-inducing Activity in Mice
Fifteen minutes after the administration of barbital (150 mg/Kg, i.v.), the mice were treated with the product of the study at an initial dose of 100 mg/Kg (i.p.).

mice [2] = test: Muscular relaxant (miorelaxant) activity in the Irwing mouse test; format: in vivo; details: 80 mg/kg i.p.; for % muscular relaxation at a time of: 1 H: 1 H after administration; for % muscular relaxation at a time of: 2 H: 2 H after administration; for % muscular relaxation at a time of: 3 H: 3 H after administration; for % muscular relaxation at a time of: 4 H: 4 H after administration; for % muscular relaxation at a time of: 5 H: 5 H after administration; for % muscular relaxation at a time of: ½ H: ½ H after administration
Experimental: Muscular Relaxant Activity
The mice received the products under study at a dosage of 80 mg/kg, via I.p., and at different times after administration (½, 1, 2, 3, 4 and 5 hours) the body tone and the abdominal tone was evaluated looking at the muscular tension compared to the control animals.

mice [3] = test: General anaesthetic activity in mice, I.V. administration; format: in vivo; details: i.v. caudal vein; for Duration: duration of sleep; for Start (s) / Start: start of sleep
Experimental: General Anaesthetic Activity
The general anaesthetic activity was study in mice, injecting the product of the study in the caudal vein. The start and duration time of sleep were recorded. The results for some of the products of the patent are shown in Table 3 and it can be seen that they show a clear anaesthetic activity with respect to the reference compound (Propofol), with the animals recovering later.

mice [4] = test: Analgesic activity: protection from contortions induced by phenylbenzoquinone; format: in vivo; details: for DE50 (mg/kg, o.a.): o.a. (orally); for DE50 (mg/kg, o.a.) / DE50 (mg/kg, s.c.): phenylbenzoquinone 5 mg/kg i.p.
Experimental: The analgesic activity of the products of the invention have been studied by evaluation of their effect in the test of contortions induced by phenylbenzoquinone in mice, following the method described by Siegmund E., and coworkers (Proc. Soc. Exp. Biol. Med. 1957, 95: 729-731).
The mice received the products of the study, a different dosage levels, and one later they received an injections i.p. of 5 mg/kg of phenylbenzoquinone. The portions of the mice were registered for the following fifteen minutes and compared the contortions of the control group. The DE50 (dosage efficacy 50) of the pound of Example 4 is shown.

For Cc1sc2ccccc2c1Cl, the melting point was 175 to 176 °C.
In the case of COc1ccnc(N2CCN(C(=O)C3CC3)CC2)n1 [Example 9], the “% Activity (sleep) Dosage 100 mg/kg” value (mice [1]) is reported as 67% and the “DE50” value (mice [1]) is reported as 28.1 mg/kg.
With COc1ccnc(N2CCN(C(=O)c3ccsc3)CC2)n1 [Example 13, 4-methoxy-2-[4-(3-thienylcarbonyl)-1-piperazinyl]pyrimidine chlorohydrate] the “% Activity (sleep) Dosage 100 mg/kg” value (mice [1]) was 77% and the “DE50” value (mice [1]) was 41.3 mg/kg.
With COc1ccnc(N2CCN(C(=O)c3ccsc3)CC2)n1 (as salt: HCl) (hydrate or solvate) [Example 13, 4-methoxy-2-[4-(3-thienylcarbonyl)-1-piperazinyl]pyrimidine chlorohydrate] the melting point was 154 to 156 °C.
For CC(C)c1cccc(C(C)C)c1O [Propofol, reference compound], the “% muscular relaxation at a time of: 1 H” value (mice [2]) was 100%, the “% muscular relaxation at a time of: 2 H” value (mice [2]) was 70% and the “% muscular relaxation at a time of: 3 H” value (mice [2]) was 0%. For the same compound, the “% muscular relaxation at a time of: 4 H” value (mice [2]) was 0%, the “% muscular relaxation at a time of: 5 H” value (mice [2]) was 0% and the “% muscular relaxation at a time of: ½ H” value (mice [2]) was 100%. The “Duration” value (mice [3]; dosage 80 mg/kg) was 0 min, the “Start (s)” value (mice [3]; dosage 80 mg/kg) was “No” and the “Duration” value (mice [3]; dosage 106 mg/kg) was 6.2 min. The “Start” value (mice [3]; dosage 106 mg/kg) was 30 s, the “Duration” value (mice [3]; dosage 120 mg/kg) was 3.9 min and the “Start” value (mice [3]; dosage 120 mg/kg) was 20 s.
In the case of COc1ccnc(N2CCN(C(=O)c3ccco3)CC2)n1 [Example 2, 2-[4-(2-furylcarbonyl)-1-piperazinyl]-4-methoxypyrimidine chlorohydrate], the “% Activity (sleep) Dosage 100 mg/kg” value (mice [1]) is reported as 93%, the “DE50” value (mice [1]) is reported as 14.4 mg/kg and the “Duration” value (mice [3]; dosage 40 mg/kg) is reported as 0.6 min. For the same compound, the “Start” value (mice [3]; dosage 40 mg/kg) was 12 s, the “Duration” value (mice [3]; dosage 80 mg/kg) was 5.3 min and the “Start (s)” value (mice [3]; dosage 80 mg/kg) was “Immediate”.
In the case of CC(=O)Oc1ccccc1C(=O)O [Aspirin, reference compound], the “DE50 (mg/kg, o.a.)” value (mice [4]) is reported as 120 mg/kg and the “DE50 (mg/kg, s.c.)” value (mice [4]) is reported as 84 mg/kg.
In the case of COc1ccnc(N2CCN(C(=O)c3cccs3)CC2)n1 (as salt: HCl) (hydrate or solvate) [Example 4, 4-methoxy-2-[4-(2-thienylcarbonyl)-1-piperazinyl]pyrimidine chlorohydrate], the melting point is reported as 143 to 145 °C.
Work on COc1ccnc(N2CCN(C(=O)c3ccco3)CC2)n1 (as salt: HCl) (hydrate or solvate) [Example 2, 2-[4-(2-furylcarbonyl)-1-piperazinyl]-4-methoxypyrimidine chlorohydrate] yielded a melting point of 162 to 164 °C.
For CCCC(C)(COC(N)=O)COC(N)=O [Meprobamate, reference compound], the “% Activity (sleep) Dosage 100 mg/kg” value (mice [1]) was 54% and the “DE50” value (mice [1]) was 84.5 mg/kg.
With COc1ccnc(N2CCN(C(=O)c3cccs3)CC2)n1 [Example 4, 4-methoxy-2-[4-(2-thienylcarbonyl)-1-piperazinyl]pyrimidine chlorohydrate] the “% muscular relaxation at a time of: 1 H” value (mice [2]) was 90%, the “% muscular relaxation at a time of: 2 H” value (mice [2]) was 10% and the “% muscular relaxation at a time of: 3 H” value (mice [2]) was 0%. For the same compound, the “% muscular relaxation at a time of: 4 H” value (mice [2]) was 0%, the “% muscular relaxation at a time of: 5 H” value (mice [2]) was 0% and the “% muscular relaxation at a time of: ½ H” value (mice [2]) was 100%. For the same compound, the “DE50 (mg/kg, o.a.)” value (mice [4]) was 72 mg/kg, the “DE50 (mg/kg, s.c.)” value (mice [4]) was 48 mg/kg and the “analgesic activity compared with aspirin (in words)” value (mice [4]; subcutaneously and orally) was “better analgesic activity”. For the same compound, the “% Activity (sleep) Dosage 100 mg/kg” value (mice [1]) was 100%, the “DE50” value (mice [1]) was 8.7 mg/kg and the “Duration” value (mice [3]; dosage 40 mg/kg) was 1.3 min. For the same compound, the “Start” value (mice [3]; dosage 40 mg/kg) was 15 s, the “Duration” value (mice [3]; dosage 80 mg/kg) was 7.4 min and the “Start (s)” value (mice [3]; dosage 80 mg/kg) was “Immediate”.
